Strand notation (5' to 3'): a small letter for the sugar, then the base; units joined by * are phosphorothioate-linked, units joined directly phosphodiester-linked; [ ] holds rarer units or linkages, { } end groups; capitals alone tell only the bases. m = 2'-O-methyl; r = 2'-OH (RNA)
B1: G000507: TTR Cyno specific sgRNA modified sequence, SEQ ID No. 119; guide sequence of CR005367 (nucleic acid)
guide: mC*mC*mA*rGrUrCrCrArGrCrGrArGrGrCrArGrArGrGrGrUrUrUrUrArGrAmGmCmUmAmGmAmAmAmUmAmGmCrArArGrUrUrArArArArUrArArGrGrCrUrArGrUrCrCrGrUrUrArUrCrAmAmCmUmUmGmAmAmAmAmAmGmUmGmGmCmAmCmCmGmAmGmUmCmGmGmUmGmCmU*mU*mU*mU

Key:
[1] = system: TTR; assay: TTR editing in primary human hepatocytes transfected with Spy Cas9 mRNA and dgRNAs (Table 9); type: cell-based; conditions: dgRNA co-transfected with Spy Cas9 mRNA (SEQ ID NO:2)
Description: (§1) Primary liver hepatocytes. Primary human liver hepatocytes (PHH) and primary cynomolgus liver hepatocytes (PCH) (Gibco) were cultured per the manufacturer's protocol (Invitrogen, protocol 11.28.2012). In brief, the cells were thawed and resuspended in hepatocyte thawing medium with supplements (Gibco, Cat. CM7000) followed by centrifugation at 100 g for 10 minutes for human and 80 g for 4 minutes for cyno. The supernatant was discarded and the pelleted cells resuspended in hepatocyte plating medium plus supplement pack (Invitrogen, Cat. A1217601 and CM3000). Cells were counted and plated on Bio-coat collagen I coated 96-well plates (ThermoFisher, Cat. 877272) at a density of 33,000 cells/well for human or 60,000 cells/well for cyno (or 65,000 cells/well when assaying effects on TTR protein, described further below). Plated cells were allowed to settle and adhere for 6 or 24 hours in a tissue culture incubator at 37° C. and 5% CO2 atmosphere. After incubation cells were checked for monolayer formation and media was replaced with hepatocyte culture medium with serum-free supplement pack (Invitrogen, Cat. A1217601 and CM4000).
Lipofectamine RNAiMax (ThermoFisher, Cat. 13778150) based transfections were conducted as per the manufacturer's protocol. Cells were sequentially transfected with a lipoplex containing Spy Cas9 mRNA (100 ng), Lipofectamine RNAiMax (0.4 μL/well) and OptiMem followed by a separate lipoplex containing crRNA (25 nM) and tracer RNA (25 nM) or sgRNA (25 nM), Lipofectamine RNAiMax (0.4 μL/well) and OptiMem.
(§2) Transfected cells were harvested post-transfection at 24, 48, or 72 hours. The genomic DNA was extracted from each well of a 96-well plate using 50 μL/well BuccalAmp DNA Extraction solution (Epicentre, Cat. QE09050) per manufacturer's protocol. All DNA samples were subjected to PCR and subsequent NGS analyses, as described herein.
(§3) To quantitatively determine the efficiency of editing at the target location in the genome, sequencing was utilized to identify the presence of insertions and deletions introduced by gene editing.
(§4) Primers were designed around the target site within the gene of interest (e.g. TTR), and the genomic area of interest was amplified.
(§5) Additional PCR was performed per the manufacturer's protocols (Illumina) to add chemistry for sequencing. The amplicons were sequenced on an Illumina MiSeq instrument. The reads were aligned to a reference genome (e.g., the human reference genome (hg38), the cynomologus reference genome (mf5), the rat reference genome (rn6), or the mouse reference genome (mm10)) after eliminating those having low quality scores. The resulting files containing the reads were mapped to the reference genome (BAM files), where reads that overlapped the target region of interest were selected and the number of wild type reads versus the number of reads which contain an insertion, substitution, or deletion was calculated.
(§6) The editing percentage (e.g., the “editing efficiency” or “percent editing” or “indel frequency”) is defined as the total number of sequence reads with insertions/deletions (“indels”) or substitutions over the total number of sequence reads, including wild type.
(§7) Guides in dgRNA format targeting human TTR and the cynomologus matched sequences were delivered to HEK293 Cas9, HUH7 and HepG2 cell lines, as well as primary human hepatocytes and primary cynomolgus monkey hepatocytes as described in Example 1. Percent editing was determined for crRNAs comprising each guide sequence across each cell type and the guide sequences were then rank ordered based on highest % edit. The screening data for the guide sequences in Table 1 in all five cell lines are listed below (Table 4 through 11).

[2] = system: TTR; assay: TTR editing in HepG2 cells transfected with Spy Cas9 mRNA and dgRNAs (Table 6); type: cell-based, human; conditions: HepG2 cells co-transfected with Spy Cas9 mRNA (SEQ ID NO:2) and dgRNAs
Description: HepG2 cell line. The human hepatocellular carcinoma cell line HepG2 (American Type Culture Collection, Cat. HB-8065) was cultured in DMEM media supplemented with 10% fetal bovine serum. Cells were counted and plated on Bio-coat collagen I coated 96-well plates (ThermoFisher, Cat. 877272) at a density of 10,000 cells/well in a 96-well plate 24 hours prior to transfection. Cells were transfected with Lipofectamine 2000 (ThermoFisher, Cat. 11668019) per the manufacturer's protocol. Cells were sequentially transfected with lipoplex containing Spy Cas9 mRNA (100 ng), Lipofectamine 2000 (0.2 μL/well) and OptiMem followed by a separate lipoplex containing individual crRNA (25 nM), tracer RNA (25 nM), Lipofectamine 2000 (0.2 μL/well) and OptiMem.
as §2, §3, §4, §5, §6, §7

[3] = system: TTR; assay: TTR editing in primary human hepatocytes transfected with Spy Cas9 protein (RNP) loaded with dgRNAs (Table 8); type: cell-based; conditions: dgRNA transfected with Spy Cas9 protein (RNP)
Description: as §1
(§8) […] formation was performed prior to electroporation or transfection of Spy Cas9 protein loaded with guide RNAs (RNPs) onto cells. For dual guide (dgRNAs), individual crRNA and trRNA was pre-annealed by mixing equivalent amounts of reagent and incubating at 95° C. for 2 min and cooling to room temperature. Single guide (sgRNAs) were boiled at 95° C. for 2 min and cooling to room temperature. The boiled dgRNA or sgRNA was incubated with Spy Cas9 protein in Optimem for 10 minutes at room temperature to form a ribonucleoprotein (RNP) complex.
For RNP lipoplex transfections, cells were transfected with Lipofectamine RNAiMAX (ThermoFisher, Cat. 13778150) per the manufacturer's protocol. Cells were transfected with an RNP containing Spy Cas9 (10 nM), individual guide (10 nM), tracer RNA (10 nM), Lipofectamine RNAiMAX (1.0 μL/well) and OptiMem. RNP formation was performed as described above.
as §2, §3, §4, §5, §6
Guides in dgRNA format targeting human TTR and the cynomologus matched sequences were delivered to HEK293 Cas9, HUH7 and HepG2 cell lines, as well as primary human hepatocytes and primary cynomolgus monkey hepatocytes as described in Example 1. […]

[4] = system: off-target genomic sites; assay: Off-target oligo insertion based assay in HEK293_Cas9 cells, dgRNAs and sgRNAs (Tables 23, 24); type: cell-based, human; conditions: Table 23; TTR dgRNAs in HekCas9 cells, oligo insertion based assay
Description: An oligo insertion based assay (See, e.g., Tsai et al., Nature Biotechnology 33, 187-197; 2015) was used to determine potential off-target genomic sites cleaved by Cas9 targeting TTR. Forty-five dgRNAs from Table 1 (and two control guides with known off-target profiles) were screened in the HEK293 Cas9 cells. The human embryonic kidney adenocarcinoma cell line HEK293 constitutively expressing Spy Cas9 (“HEK293_Cas9”) was cultured in DMEM media supplemented with 10% fetal bovine serum and 500 μg/ml G418. Cells were plated at a density of 30,000 cells/well in a 96-well plate 24 hours prior to transfection. Cells were transfected with Lipofectamine RNAiMAX (ThermoFisher, Cat. 13778150) per the manufacturer's protocol. Cells were transfected with a lipoplex containing individual crRNA (15 nM), trRNA (15 nM), and donor oligo with (10 nM) Lipofectamine RNAiMAX (0.3 μL/well) and OptiMem. Cells were lysed 24 hours post transfection and genomic DNA was extracting using Zymo's Quick gDNA 96 Extraction kit (catalog #D3012) following the manufacturer's recommended protocol. The gDNA was quantified using the Qubit High Sensitivity dsDNA kit (Life Technologies). Libraries were prepared per the previously described method in Tsai et al, 2015 with minor modifications. Sequencing was performed on Illumina's MiSeq and HiSeq 2500. The assay identified potential off-target sites for some of the crRNAs which are plotted in FIG. 2.
Additionally, a subset of the guides was assessed for off-target potential as modified sgRNAs in the Hek_Cas9 cells via the oligo based insertion method described above. The off-target results were plotted in FIG. 4.

[5] = system: TTR; assay: TTR editing in primary human hepatocytes electroporated with Spy Cas9 protein loaded with dgRNAs (Table 7); type: cell-based; conditions: dgRNA electroporated with Spy Cas9 protein (RNP)
Description: as §1, §8
(§9) For RNP electroporation into primary human and cyno hepatocytes, the cells are thawed and resuspended in Lonza electroporation Primary Cell P3 buffer at a concentration of 2500 cells per μL for human hepatocytes and 3500 cells per μL for cyno hepatocytes. A volume of 20 μL of resuspended cells and 5 μL of RNP are mixed together per guide. 20 μL of the mixture is placed into a Lonza electroporation plate. The cells were electroporated using the Lonza nucleofector with the preset protocol EX-147. Post electroporation, the cells are transferred into a Biocoat plate containing pre-warmed maintenance media and placed in a tissue culture incubator at 37° C. and 5% CO2.
as §2, §3, §4, §5
(§10) The editing percentage (e.g., the “editing efficiency” or “percent editing” or “indel frequency”) is defined as the total number of sequence reads with insertions/deletions (“indels”) or substitutions over the total number of sequence reads, including wild type. […]

[6] = system: TTR; assay: TTR editing in primary cyno hepatocytes electroporated with Spy Cas9 protein and dgRNAs (Tables 10, 11); type: cell-based, cynomolgus monkey; conditions: Table 10; primary cyno hepatocytes electroporated with Spy Cas9 protein (RNP) and dgRNAs
Description: as §1, §8, §9, §2, §3, §4, §5, §10

[7] = system: TTR; assay: TTR editing in primary cyno hepatocytes electroporated with Spy Cas9 protein and sgRNAs (Tables 14, 15); type: cell-based, cynomolgus monkey; conditions: Table 15; primary cyno hepatocytes electroporated with Spy Cas9 protein (RNP) and cyno specific sgRNAs
Description: as §1, §8, §9, §2, §3, §4, §5, §10

| Molecule | Avg % Deletion [1] [%] | Avg % Edit [1] [%] | Avg % Insert [1] [%] | Avg % Deletion [2] [%] | Avg % Edit [2] [%] | Avg % Insert [2] [%] | Avg % Deletion [3] [%] | Avg % Edit [3] [%] | Avg % Insert [3] [%] | # Sites (off-target integration sites detected) [4] | Avg % Deletion [5] [%] | Avg % Edit [5] [%] | Avg % Insert [5] [%] | Avg % Deletion [6] [%] | Avg % Edit [6] [%] | Avg % Insert [6] [%] | Avg % Deletion [7] [%] | Avg % Edit [7] [%] | Avg % Insert [7] [%] |
| --- | --- | --- | --- | --- | --- | --- | --- | --- | --- | --- | --- | --- | --- | --- | --- | --- | --- | --- | --- |
| UCACAGAAACACUCACCGUA (tested as dual guide RNA, chemistry not given here) [CR005300] | 3.97 | 31.53 | 27.60 | 11.15 | 64.34 | 53.20 | 3.61 | 57.23 | 53.62 | 0 | 4.10 | 57.47 | 53.47 | – | – | – | – | – | – |
| UCCACUCAUUCUUGGCAGGA (tested as dual guide RNA, chemistry not given here) [CR005298] | 11.60 | 15.70 | 4.13 | 21.36 | 42.65 | 21.29 | 10.95 | 32.07 | 21.12 | 0 | 17.57 | 39.90 | 22.37 | – | – | – | – | – | – |
| UGUCUGUCUUCUCUCAUAGG (tested as dual guide RNA, chemistry not given here) [CR005307] | 9.30 | 12.90 | 3.67 | 14.33 | 22.03 | 7.70 | 8.55 | 18.73 | 10.18 | – | 3.00 | 8.17 | 5.20 | 2.55 | 4.56 | 2.01 | – | – | – |
| B1 | – | – | – | – | – | – | – | – | – | – | – | – | – | – | – | – | 4.60 | 71.17 | 67.03 |

— patent publication US11795460B2, “Compositions and methods for TTR gene editing and treating ATTR amyloidosis” (Intellia Therapeutics, Inc., priority 2017, dated 2023)
